In US11999746B2, “Compounds” (GlaxoSmithKline Intellectual Property Development Limited, priority 2014, dated 2024):

Experiments:
[1] = molecular target: T1, recombinant human Lp-PLA2 (Homo sapiens, UniProt Q13093); test: (1a) PED6 assay, recombinant human Lp-PLA2 (rhLp-PLA2); type: biochemical; settings: Examples 1-167 and 413-430 were tested here, one experiment or average of multiple experiments, read-out: rhLp-PLA2 (pIC50) (converted)
T1 sequence (Q13093 22-441): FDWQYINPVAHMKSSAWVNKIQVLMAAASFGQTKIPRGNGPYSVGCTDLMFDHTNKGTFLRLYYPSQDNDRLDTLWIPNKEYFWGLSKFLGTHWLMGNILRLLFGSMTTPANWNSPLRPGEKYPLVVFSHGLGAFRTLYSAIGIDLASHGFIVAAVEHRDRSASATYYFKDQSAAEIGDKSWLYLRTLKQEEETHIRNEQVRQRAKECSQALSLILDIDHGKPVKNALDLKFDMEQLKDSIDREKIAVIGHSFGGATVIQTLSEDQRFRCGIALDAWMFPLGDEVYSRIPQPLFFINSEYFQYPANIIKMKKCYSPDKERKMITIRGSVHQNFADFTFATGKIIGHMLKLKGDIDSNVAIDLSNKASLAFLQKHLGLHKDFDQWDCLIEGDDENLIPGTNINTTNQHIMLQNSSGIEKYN
Outline: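 PED6 (2 μM final after 1:1 addition of 4 μM stock) cleavage by rhLp-PLA2 (4 nM working solution) in 50 mM HEPES pH 7.4, 150 mM NaCl, 1 mM CHAPS; compounds preincubated with enzyme 30 minutes, reaction 20 min at room temperature. Fluorescence at ex 480/em 540; pIC50 from curve fit.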

Lp-PLA2 in human plasma = molecular target: T2, Lp-PLA2 in human plasma (Homo sapiens, UniProt Q13093); test: (3a) Lp-PLA2 human plasma Thio-PAF assay; type: biochemical; settings: (3a) Thio-PAF assay, pooled human plasma; Examples 1-265 and 413-430 were tested here; read-out: pIC50 in the Lp-PLA2 human plasma assay (converted)
T2 construct: from tissue; host or cells: pooled human plasma
T2 sequence (Q13093 22-441): T1 sequence (Q13093 22-441)
Outline: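 Endogenous Lp-PLA2 activity in frozen pooled human plasma measured as thiol release from 2-thio-PAF, detected by CPM fluorescence (ex 380/em 485). Compound preincubation 30 min; 2-min reaction in HEPES pH 7.4 buffer with NEM, stopped with 5% TFA, read 40 min later at room temperature; values as pIC50.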

CCn1cc(Oc2c(F)cc(COc3cc4n(c(=O)n3)CC3COCCN43)cc2F)cn1 (centres unmarked) [Example E109, 7-((4-((1-Ethyl-1H-pyrazol-4-yl)oxy)-3,5-difluorobenzyl)oxy)-3,4,11,11a-tetrahydropyrimido[6′,1′:2,3]imidazo[5,1-c][1,4]oxazin-9(1H)-one]
IC50 [1]: 1.26 nM | IC50 (Lp-PLA2 in human plasma): ≤ 100 nM

O=c1nc(OCc2cc(F)c(Oc3cnc(C(F)(F)F)nc3)c(F)c2)cc2n1CC1COCCN21 (centres unmarked) [Example E110, 7-((3,5-Difluoro-4-((2-(trifluoromethyl)pyrimidin-5-yl)oxy)benzyl)oxy)-3,4,11,11a-tetra hydropyrimido[6′,1′:2,3]imidazo[5,1-c][1,4]oxazin-9(1H)-one]
IC50 [1]: 0.501 nM | IC50 (Lp-PLA2 in human plasma): ≤ 100 nM

N#Cc1cc(COc2cc3n(c(=O)n2)CC2COCCN32)ccc1Oc1ccc(F)c(C(F)(F)F)c1 (centres unmarked) [Example E111, 2-(4-Fluoro-3-(trifluoromethyl)phenoxy)-5-(((9-oxo-1,3,4,9,11,11a-hexahydropyrimido[6′,1′:2,3]imidazo[5,1-c][1,4]oxazin-7-yl)oxy)methyl)benzonitrile]
IC50 [1]: ≤ 1 nM | IC50 (Lp-PLA2 in human plasma): ≤ 100 nM

CCCn1cc(Oc2c(F)cc(COc3cc4n(c(=O)n3)C[C@H]3COCCN43)cc2F)cn1 [Example E112, (S)-7-((3,5-difluoro-4-((1-propyl-1H-pyrazol-4-yl)oxy)benzyl)oxy)-3,4,11,11atetrahydropyrimido[6′,1′:2,3]imidazo[5,1-c][1,4]oxazin-9(1H)-one]
IC50 [1]: ≤ 1 nM | IC50 (Lp-PLA2 in human plasma): ≤ 100 nM

O=c1nc(OCc2cc(F)c(Oc3ccnc(C(F)(F)F)c3)c(F)c2)cc2n1C[C@H]1COCCN21 [Example E113, (S)-7-((3,5-difluoro-4-((2-(trifluoromethyl)pyridin-4-yl)oxy)benzyl)oxy)-3,4, 11, 11a tetrahydropyrimido[6′,1′:2,3]imidazo[5,1-c][1,4]oxazin-9(1H)-one]
IC50 [1]: 0.0316 nM | IC50 (Lp-PLA2 in human plasma): ≤ 100 nM

Cn1cc(Oc2c(F)cc(COc3cc4n(c(=O)n3)C[C@H]3COCCN43)cc2F)cn1 [Example E114, (S)-7-((3,5-difluoro-4-((1-methyl-1H-pyrazol-4-yl)oxy)benzyl)oxy)-3,4,11,11a-tetrahydropyrimido[6′,1′:2,3]imidazo[5,1-c][1,4]oxazin-9(1H)-one]
IC50 [1]: ≤ 100 nM | IC50 (Lp-PLA2 in human plasma): ≤ 100 nM

CCn1cc(Oc2c(F)cc(COc3cc4n(c(=O)n3)C[C@H]3COCCN43)cc2F)cn1 [Example E115, (S)-7-((4-((1-ethyl-1H-pyrazol-4-yl)oxy)-3,5-difluorobenzyl)oxy)-3,4,11,11a-tetrahydropyrimido[6′,1′:2,3]imidazo[5,1-c][1,4]oxazin-9(1H)-one]
IC50 [1]: 1 nM | IC50 (Lp-PLA2 in human plasma): ≤ 100 nM

O=c1nc(OCc2cc(F)c(F)c(F)c2)cc2n1C[C@H]1COCCN21 [Example E116, (S)-7-((3,4,5-trifluorobenzyl)oxy)-3,4,11,11atetrahydropyrimido[6′,1′:2,3]imidazo[5,1-c][1,4] oxazin-9(1H)-one]
IC50 [1]: ≤ 100 nM | IC50 (Lp-PLA2 in human plasma): ≤ 100 nM

Cc1cc(Oc2c(F)cc(COc3cc4n(c(=O)n3)C[C@@H]3COCCN43)cc2F)ccn1 [Example E117, (R)-7-((3,5-difluoro-4-((2-methylpyridin-4-yl)oxy)benzyl)oxy)-3,4,11,11atetrahydropyrimido[6′,1′:2,3]imidazo[5,1-c][1,4]oxazin-9(1H)-one]
IC50 [1]: ≤ 100 nM | IC50 (Lp-PLA2 in human plasma): ≤ 100 nM

Cc1ccc(Oc2c(F)cc(COc3cc4n(c(=O)n3)C[C@@H]3COCCN43)cc2F)cn1 [Example E118, (R)-7-((3,5-difluoro-4-((6-methylpyridin-3-yl)oxy)benzyl)oxy)-3,4,11,11atetrahydropyrimido[6′,1′:2,3]imidazo[5,1-c][1,4]oxazin-9(1H)-one]
IC50 [1]: ≤ 1 nM | IC50 (Lp-PLA2 in human plasma): ≤ 100 nM

O=c1nc(OCc2cc(F)c(Oc3ccnc(C(F)(F)F)c3)c(F)c2)cc2n1C[C@@H]1COCCN21 [Example E119, (R)-7-((3,5-difluoro-4-((2-(trifluoromethyl)pyridin-4-yl)oxy)benzyl)oxy)-3,4, 11, 11a-tetra hydropyrimido[6′,1′:2,3]imidazo[5,1-c][1,4]oxazin-9(1H)-one]
IC50 [1]: ≤ 1 nM | IC50 (Lp-PLA2 in human plasma): ≤ 100 nM

Cn1cc(Oc2c(F)cc(COc3cc4n(c(=O)n3)C[C@@H]3COCCN43)cc2F)cn1 [Example E120, (R)-7-((3,5-difluoro-4-((1-methyl-1H-pyrazol-4-yl)oxy)benzyl)oxy)-3,4,11,11a-tetrahydropyrimido[6′,1′:2,3]imidazo[5,1-c][1,4]oxazin-9(1H)-one]
IC50 [1]: ≤ 100 nM | IC50 (Lp-PLA2 in human plasma): ≤ 10000 nM

CCn1cc(Oc2c(F)cc(COc3cc4n(c(=O)n3)C[C@@H]3COCCN43)cc2F)cn1 [Example E121, (R)-7-((4-((1-ethyl-1H-pyrazol-4-yl)oxy)-3,5-difluorobenzyl)oxy)-3,4,11,11a-tetrahydropyrimido[6′,1′:2,3]imidazo[5,1-c][1,4]oxazin-9(1H)-one]
IC50 [1]: ≤ 100 nM | IC50 (Lp-PLA2 in human plasma): ≤ 10000 nM

CCCn1cc(Oc2c(F)cc(COc3cc4n(c(=O)n3)C[C@@H]3COCCN43)cc2F)cn1 [Example E122, (R)-7-((3,5-difluoro-4-((1-propyl-1H-pyrazol-4-yl)oxy)benzyl)oxy)-3,4,11,11atetrahydropyrimido[6′,1′:2,3]imidazo[5,1-c][1,4]oxazin-9(1H)-one]
IC50 [1]: ≤ 100 nM | IC50 (Lp-PLA2 in human plasma): ≤ 10000 nM

O=c1nc(OCc2cc(F)c(F)c(F)c2)cc2n1C[C@@H]1COCCN21 [Example E123, (R)-7-((3,4,5-trifluorobenzyl)oxy)-3,4,11,11atetrahydropyrimido[6′,1′:2,3]imidazo[5,1-c][1,4] oxazin-9(1H)-one]
IC50 [1]: ≤ 100 nM | IC50 (Lp-PLA2 in human plasma): ≤ 10000 nM

Cc1cc(Oc2c(F)cc(COc3cc4n(c(=O)n3)C[C@H]3COCCN43)cc2F)ccn1 [Example E124, (S)-7-((3,5-difluoro-4-((2-methylpyridin-4-yl)oxy)benzyl)oxy)-3,4,11,11atetrahydropyrimido[6′,1′:2,3]imidazo[5,1-c][1,4]oxazin-9(1H)-one]
IC50 [1]: 0.501 nM | IC50 (Lp-PLA2 in human plasma): ≤ 100 nM

Cc1ccc(Oc2c(F)cc(COc3cc4n(c(=O)n3)C[C@H]3COCCN43)cc2F)cn1 [Example E125, (S)-7-((3,5-difluoro-4-((6-methylpyridin-3-yl)oxy)benzyl)oxy)-3,4,11,11atetrahydropyrimido[6′,1′:2,3]imidazo[5,1-c][1,4]oxazin-9(1H)-one]
IC50 [1]: 0.0631 nM | IC50 (Lp-PLA2 in human plasma): ≤ 100 nM

O=c1nc(OCc2ccc(F)cc2F)cc2n1C[C@H]1COCCN21 [Example E126, (S)-7-((2,4-difluorobenzyl)oxy)-3,4,11,11a-tetrahydropyrimido[6′,1′:2,3]imidazo[5,1-c][1,4] oxazin-9(1H)-one]
IC50 [1]: ≤ 100 nM | IC50 (Lp-PLA2 in human plasma): ≤ 10000 nM

O=c1nc(OCc2cccc(F)c2F)cc2n1C[C@H]1COCCN21 [Example E127, (S)-7-((2,3-difluorobenzyl)oxy)-3,4,11,11a-tetrahydropyrimido[6′,1′:2,3]imidazo[5,1-c][1,4] oxazin-9(1H)-one]
IC50 [1]: ≤ 100 nM | IC50 (Lp-PLA2 in human plasma): ≤ 100 nM

O=c1nc(OCc2cccc(F)c2)cc2n1C[C@H]1COCCN21 [Example E128, (S)-7-((3-fluorobenzyl)oxy)-3,4,11,11a-tetrahydropyrimido[6′,1′:2,3]imidazo[5,1-c][1,4] oxazin-9(1H)-one]
IC50 [1]: 10 nM | IC50 (Lp-PLA2 in human plasma): ≤ 100 nM

O=c1nc(OCc2cc(F)cc(F)c2)cc2n1C[C@H]1COCCN21 [Example E129, (S)-7-((3,5-difluorobenzyl)oxy)-3,4,11,11a-tetrahydropyrimido[6′,1′:2,3]imidazo[5,1-c][1,4] oxazin-9(1H)-one]
IC50 [1]: ≤ 100 nM | IC50 (Lp-PLA2 in human plasma): ≤ 100 nM

O=c1nc(OCc2ccc(F)cc2F)cc2n1C[C@@H]1COCCN21 [Example E130, (R)-7-((2,4-difluorobenzyl)oxy)-3,4,11,11a-tetrahydropyrimido[6′,1′:2,3]imidazo[5,1-c][1,4] oxazin-9(1H)-one]
IC50 [1]: ≤ 100 nM | IC50 (Lp-PLA2 in human plasma): ≤ 10000 nM

O=c1nc(OCc2cccc(F)c2F)cc2n1C[C@@H]1COCCN21 [Example E131, (R)-7-((2,3-difluorobenzyl)oxy)-3,4,11,11a-tetrahydropyrimido[6′,1′:2,3]imidazo[5,1-c][1,4] oxazin-9(1H)-one]
IC50 [1]: ≤ 100 nM | IC50 (Lp-PLA2 in human plasma): ≤ 100 nM

O=c1nc(OCc2cccc(F)c2)cc2n1C[C@@H]1COCCN21 [Example E132, (R)-7-((3-fluorobenzyl)oxy)-3,4,11,11a-tetrahydropyrimido[6′,1′:2,3]imidazo[5,1-c][1,4] oxazin-9(1H)-one]
IC50 [1]: ≤ 100 nM | IC50 (Lp-PLA2 in human plasma): ≤ 10000 nM

O=c1nc(OCc2cc(F)cc(F)c2)cc2n1C[C@@H]1COCCN21 [Example E133, (R)-7-((3,5-difluorobenzyl)oxy)-3,4,11,11a-tetrahydropyrimido[6′,1′:2,3]imidazo[5,1-c][1,4] oxazin-9(1H)-one]
IC50 [1]: ≤ 100 nM | IC50 (Lp-PLA2 in human plasma): ≤ 10000 nM
